# Results taken from patent US20100056508A1, “AMINE DERIVATIVES AND THEIR USE IN BETA-2-ADRENORECEPTOR MEDIATED DISEASES” (ASTRAZENECA AB, priority 2006, published 2010).
# Columns and labels:
# Adrenergic β2 = molecular target: T1, Adrenergic β2 (Homo sapiens, UniProt P07550); experiment: Adrenergic β2 mediated cAMP production in H292 cells (AlphaScreen cAMP detection); type: cell-based; design: key to β2 Int Act: fraction of formoterol maximum activity (formoterol = 1); conditions: for β2 Int Act: Intrinsic Activity as a fraction relative to the maximum activity determined for formoterol; for EC50: cAMP production, 60 minutes at room temperature, 300 μM rolipram, read-out: β2 pEC50 (converted)
# T1 construct: Adherent H292 cells were removed from tissue culture flasks; endogenous in cells; host or cells: H292 cells
# T1 sequence (P07550 whole entry): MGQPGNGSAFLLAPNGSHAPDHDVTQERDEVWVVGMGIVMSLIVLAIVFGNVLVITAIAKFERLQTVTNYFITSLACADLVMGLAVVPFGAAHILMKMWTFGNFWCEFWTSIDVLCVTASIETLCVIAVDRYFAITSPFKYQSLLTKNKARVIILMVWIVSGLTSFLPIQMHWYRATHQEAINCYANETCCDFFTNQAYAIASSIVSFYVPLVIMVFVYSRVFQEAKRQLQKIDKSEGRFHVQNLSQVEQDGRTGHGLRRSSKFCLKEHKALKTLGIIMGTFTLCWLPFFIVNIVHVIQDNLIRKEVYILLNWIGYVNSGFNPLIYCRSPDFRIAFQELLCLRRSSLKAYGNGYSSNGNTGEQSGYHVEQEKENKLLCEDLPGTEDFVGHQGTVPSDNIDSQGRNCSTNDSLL
# Description: Adrenergic β2 Mediated cAMP Production
# H292 cells were grown in 225 cm2 flasks incubator at 37° C., 5% CO2 in RPMI medium containing, 10% (v/v) FBS (foetal bovine serum) and 2 mM L-glutamine.
# Adherent H292 cells were removed from tissue culture flasks by treatment with Accutase™ cell detachment solution for 15 minutes. Flasks were incubated for 15 minutes in a humidified incubator at 37° C., 5% CO2. Detached cells were re-suspended in RPMI media (containing 10% (v/v) FBS and 2 mM L-glutamine) at 1×10^6 cells per mL. 10000 cells in 100 μL were added to each well of a tissue-culture-treated 96-well plate and the cells incubated overnight in a humidified incubator at 37° C., 5% CO2. The culture media was removed and cells were washed twice with 100 μL assay buffer and replaced with 50 μL assay buffer (HBSS solution containing 10 mM HEPES pH7.4 and 5 mM glucose). Cells were rested at room temperature for 20 minutes after which time 25 μL of rolipram (1.2 mM made up in assay buffer containing 2.4% (v/v) dimethylsulphoxide) was added. Cells were incubated with rolipram for 10 minutes after which time test compounds were added and the cells were incubated for 60 minutes at room temperature. The final rolipram concentration in the assay was 300 μM and final vehicle concentration was 1.6% (v/v) dimethylsulphoxide. The reaction was stopped by removing supernatants, washing once with 100 μL assay buffer and replacing with 50 μL lysis buffer. The cell monolayer was frozen at −80° C. for 30 minutes (or overnight).
# AlphaScreen™ cAMP Detection
# The concentration of cAMP (cyclic adenosine monophosphate) in the cell lysate was determined using AlphaScreen™ methodology. The frozen cell plate was thawed for 20 minutes on a plate shaker then 10 μL of the cell lysate was transferred to a 96-well white plate. 40 μL of mixed AlphaScreen™ detection beads pre-incubated with biotinylated cAMP, was added to each well and the plate incubated at room temperature for 10 hours in the dark. The AlphaScreen™ signal was measured using an EnVision spectrophotometer (Perkin-Elmer Inc.) with the recommended manufacturer's settings. cAMP concentrations were determined by reference to a calibration curve determined in the same experiment using standard cAMP concentrations. Concentration response curves for agonists were constructed and data was fitted to a four parameter logistic equation to determine both the pEC50 and Intrinsic Activity. Intrinsic Activity was expressed as a fraction relative to the maximum activity determined for formoterol in each experiment.
# [1] = molecular target: T2, recombinant human adrenergic beta 1 receptors (Homo sapiens, UniProt P08588); experiment: Adrenergic β1 selectivity assay, [125I]-Iodocyanopindolol binding to membranes; conditions: inhibition of [125I]-Iodocyanopindolol binding, read-out: β1 bind pIC50 (converted)
# T2 construct: purchased Euroscreen
# T2 sequence (P08588 whole entry): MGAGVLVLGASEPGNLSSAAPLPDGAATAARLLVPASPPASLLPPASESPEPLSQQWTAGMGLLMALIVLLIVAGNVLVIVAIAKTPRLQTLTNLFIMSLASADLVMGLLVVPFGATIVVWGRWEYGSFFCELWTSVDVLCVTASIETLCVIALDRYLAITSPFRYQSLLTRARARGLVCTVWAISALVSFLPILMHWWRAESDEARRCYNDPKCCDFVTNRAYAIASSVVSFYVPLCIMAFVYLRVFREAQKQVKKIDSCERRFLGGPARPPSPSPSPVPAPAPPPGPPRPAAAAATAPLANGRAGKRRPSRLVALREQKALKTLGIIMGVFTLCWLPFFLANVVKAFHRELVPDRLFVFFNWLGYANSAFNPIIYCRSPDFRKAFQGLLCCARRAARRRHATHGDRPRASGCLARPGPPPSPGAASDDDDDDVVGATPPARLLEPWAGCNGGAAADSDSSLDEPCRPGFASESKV
# Description: Membranes containing recombinant human adrenergic beta 1 receptors were obtained from Euroscreen. These were diluted in Assay Buffer (50 mM HEPES, 1 mM EDTA, 120 mM NaCl, 0.1% gelatin, pH 7.4) to provide a final concentration of membranes that gave a clear window between maximum and minimum specific binding.
# Assays were performed in U-bottomed 96-well polypropylene plates. 10 μL [^125I]-Iodocyanopindolol (0.036 nM final concentration) and 10 μL of test compound (10× final concentration) were added to each test well. For each assay plate 8 replicates were obtained for [^125I]-Iodocyanopindolol binding in the presence of 10 μL vehicle (10% (v/v) DMSO in Assay Buffer; defining maximum binding) or 10 μL Propranolol (10 μM final concentration; defining non-specific binding (NSB)). Membranes were then added to achieve a final volume of 100 μL. The plates were incubated for 2 hours at room temperature and then filtered onto PEI coated GF/B filter plates, pre-soaked for 1 hour in Assay Buffer, using a 96-well plate Tomtec cell harvester. Five washes with 250 μL wash buffer (50 mM HEPES, 1 mM EDTA, 120 mM NaCl, pH 7.4) were performed at 4° C. to remove unbound radioactivity. The plates were dried then sealed from underneath using Packard plate sealers and MicroScint-O (50 μL) was added to each well. The plates were sealed (TopSeal A) and filter-bound radioactivity was measured with a scintillation counter (TopCount, Packard BioScience) using a 3-minute counting protocol.
# Total specific binding (B0) was determined by subtracting the mean NSB from the mean maximum binding. NSB values were also subtracted from values from all other wells. […] Data was fitted to a four parameter logistic equation to determine the compound potency, which was expressed as pIC50 (negative log molar concentration inducing 50% inhibition of [^125I]-Iodocyanopindolol binding).
SMILES,β2 Int Act (Adrenergic β2),EC50 (Adrenergic β2),IC50 [1]
"O=C(CCOCCc1ccccc1)N(CCNCCc1ccc(O)c2[nH]c(=O)ccc12)C1CCCCC1 [Example 2, N-Cyclohexyl-N-(2-(2-(8-hydroxy-2-oxo-1,2-dihydroquinolin-5-yl)ethylamino)ethyl)-3-phenethoxypropanamide]",0.93,12.6 nM,> 6310 nM
"O=C(CCNCCc1cccc(Cl)c1)N(CCNCCc1ccc(O)c2[nH]c(=O)ccc12)C1CCCCCC1 [Example 3, 3-(3-Chlorophenethylamino)-N-cycloheptyl-N-(2-(2-(8-hydroxy-2-oxo-1,2-dihydroquinolin-5-yl)ethylamino)ethyl)propanamide bis(trifluoroacetate)]",0.82,7.94 nM,1260 nM
"O=C(CCNCCc1ccc(Cl)cc1)N(CCNCCc1ccc(O)c2[nH]c(=O)ccc12)C1CCCCCC1 [Example 4, 3-(4-Chlorophenethylamino)-N-cycloheptyl-N-(2-(2-(8-hydroxy-2-oxo-1,2-dihydroquinolin-5-yl)ethylamino)ethyl)propanamide bis(trifluoroacetate)]",0.79,20 nM,3160 nM
"CCOc1cccc(CCNCCC(=O)N(CCNCCc2ccc(O)c3[nH]c(=O)ccc23)C2CCCCCC2)c1 [Example 11, N-Cycloheptyl-3-(3-ethoxyphenethylamino)-N-(2-(2-(8-hydroxy-2-oxo-1,2-dihydroquinolin-5-yl)ethylamino)ethyl)propanamide bis(trifluoroacetate)]",0.65,79.4 nM,> 10000 nM
"O=C(CCNCCc1cccc(Cl)c1)N(CCNCCc1ccc(O)c2[nH]c(=O)ccc12)C1CCCCC1 [Example 13, 3-(3-Chlorophenethylamino)-N-cyclohexyl-N-(2-(2-(8-hydroxy-2-oxo-1,2-dihydroquinolin-5-yl)ethylamino)ethyl)propanamide bis(trifluoroacetate)]",0.86,7.94 nM,> 10000 nM
"O=C(CCNCCc1ccc(Cl)cc1)N(CCNCCc1ccc(O)c2[nH]c(=O)ccc12)C1CCCCC1 [Example 14, 3-(4-Chlorophenethylamino)-N-cyclohexyl-N-(2-(2-(8-hydroxy-2-oxo-1,2-dihydroquinolin-5-yl)ethylamino)ethyl)propanamide bis(trifluoroacetate)]",0.88,20 nM,> 10000 nM
"O=C(CCNCCc1cc(F)cc(F)c1)N(CCNCCc1ccc(O)c2[nH]c(=O)ccc12)C1CCCCC1 [Example 15, N-Cyclohexyl-3-(3,5-difluorophenethylamino)-N-(2-(2-(8-hydroxy-2-oxo-1,2-dihydroquinolin-5-yl)ethylamino)ethyl)propanamide bis(trifluoroacetate)]",0.88,7.94 nM,> 10000 nM
"O=C(CCNCCc1cc(F)ccc1F)N(CCNCCc1ccc(O)c2[nH]c(=O)ccc12)C1CCCCC1 [Example 17, N-Cyclohexyl-3-(2,5-difluorophenethylamino)-N-(2-(2-(8-hydroxy-2-oxo-1,2-dihydroquinolin-5-yl)ethylamino)ethyl)propanamide bis(trifluoroacetate)]",0.93,3.98 nM,12600 nM
"O=C(CCNCCc1cccc(F)c1F)N(CCNCCc1ccc(O)c2[nH]c(=O)ccc12)C1CCCCC1 [Example 18, N-Cyclohexyl-3-(3-difluorophenethylamino)-N-(2-(2-(8-hydroxy-2-oxo-1,2-dihydroquinolin-5-yl)ethylamino)ethyl)propanamide bis(trifluoroacetate)]",0.95,12.6 nM,> 10000 nM
"O=CNc1cc(CCNCCN(C(=O)CCNCCc2ccccc2)C2CCCCC2)ccc1O [Example 21, N-Cyclohexyl-N-(2-(3-formamido-4-hydroxyphenethylamino)ethyl)-3-(phenethylamino)propanamide]",0.83,31.6 nM,> 10000 nM
"O=C(CCNCCc1ccccc1)N(CCNCCc1ccc(O)c(O)c1)C1CCCCC1 [Example 22, N-Cyclohexyl-N-(2-(3,4-dihydroxyphenethylamino)ethyl)-3-(phenethylamino)propanamide bis(trifluoroacetate)]",1.01,20 nM,2510 nM
"O=C1COc2c(CCNCCN(C(=O)CCNCCc3ccccc3)C3CCCCC3)ccc(O)c2N1 [Example 23, N-Cyclohexyl-N-(2-(2-(5-hydroxy-3-oxo-3,4-dihydro-2H-benzo[b][1,4]oxazin-8-yl)ethylamino)ethyl)-3-(phenethylamino)propanamide bis(trifluoroacetate)]",0.79,0.631 nM,631 nM
"O=C1COc2c(CCNCCN(C(=O)CCNCCc3ccccc3)C3CCCCCC3)ccc(O)c2N1 [Example 24, N-Cycloheptyl-N-(2-(2-(5-hydroxy-3-oxo-3,4-dihydro-2H-benzo[b][1,4]oxazin-8-yl)ethylamino)ethyl)-3-(phenethylamino)propanamide bis(trifluoroacetate)]",0.85,1 nM,631 nM
"CCCC[C@@H](C)N(CCNCCc1ccc(O)c2c1OCC(=O)N2)C(=O)CCNCCc1ccccc1 [Example 25, (R)—N-(Hexan-2-yl)-N-(2-(2-(5-hydroxy-3-oxo-3,4-dihydro-2H-benzo[b][1,4]oxazin-8-yl)ethylamino)ethyl)-3-(phenethylamino)propanamide bis(trifluoroacetate)]",0.9,1 nM,2510 nM
"O=C1COc2c(CCNCCN(C(=O)CCNCCc3ccc(Cl)c(Cl)c3)C3CCCCCC3)ccc(O)c2N1 [Example 26, N-Cycloheptyl-3-(3,4-dichlorophenethylamino)-N-(2-(2-(5-hydroxy-3-oxo-3,4-dihydro-2H-benzo[b][1,4]oxazin-8-yl)ethylamino)ethyl)propanamide bis(trifluoroacetate)]",0.74,2.51 nM,2000 nM
"O=C1COc2c(CCNCCN(C(=O)CCNCCc3cccc(Cl)c3)C3CCCCC3)ccc(O)c2N1 [Example 27, 3-(3-Chlorophenethylamino)-N-cyclohexyl-N-(2-(2-(5-hydroxy-3-oxo-3,4-dihydro-2H-benzo[b][1,4]oxazin-8-yl)ethylamino)ethyl)propanamide bis(trifluoroacetate)]",0.89,2 nM,3160 nM
"O=C1COc2c(CCNCCN(C(=O)CCNCCc3cccc(Cl)c3Cl)C3CCCCC3)ccc(O)c2N1 [Example 29, N-Cyclohexyl-3-(2,3-dichlorophenethylamino)-N-(2-(2-(5-hydroxy-3-oxo-3,4-dihydro-2H-benzo[b][1,4]oxazin-8-yl)ethylamino)ethyl)propanamide bis(trifluoroacetate)]",0.91,5.01 nM,3160 nM
